≈ marks a conversion by molar mass, not a printed value.
Columns and labels:
Format in all cases: functional
Escherichia coli [1] = test: Tested in vitro for the minimum inhibitory concentration (MIC) against Escherichia coli
Salmonella enterica [2] = test: Tested in vitro for the minimum inhibitory concentration (MIC) against Salmonella choleraesuis
Salmonella enterica [3] = test: Tested in vivo for the antibacterial activity against Salmonella choleraesuis after sc administration of 25 mg/kg in mice; settings: route subcutaneous
Salmonella enterica [4] = test: Tested in vivo for the antibacterial activity against Salmonella choleraesuis after oral administration of 25 mg/kg in mice
Streptococcus pyogenes = test: Tested in vitro for the minimum inhibitory concentration (MIC) against Strep. pyogenes
Pasteurella multocida [5] = test: Tested in vitro for the minimum inhibitory concentration (MIC) against Pasteurella multocida
Pasteurella multocida [6] = test: Tested in vivo for the antibacterial activity against Pasteurella multocida after oral administration in mice; settings: read-out: PD50
Pasteurella multocida [7] = test: Tested in vivo for the antibacterial activity against Pasteurella multocida after sc administration in mice; settings: read-out: PD50
Escherichia coli [8] = test: Tested in vivo for the antibacterial activity against Escherichia coli after oral administration in mice; settings: read-out: PD50
Escherichia coli [9] = test: Tested in vivo for the antibacterial activity against Escherichia coli after sc administration in mice; settings: read-out: PD50
Salmonella enterica [10] = test: Tested in vivo for the antibacterial activity against Salmonella choleraesuis after oral administration in mice; settings: read-out: PD50
Salmonella enterica [11] = test: Tested in vivo for the antibacterial activity against Salmonella choleraesuis after sc administration in mice; settings: read-out: PD50

Row | Structure (SMILES) | MIC (Escherichia coli [1]) [µg/mL] | MIC (Salmonella enterica [2]) [µg/mL] | Protection (Salmonella enterica [3]) [%] | Protection (Salmonella enterica [4]) [%] | MIC (Streptococcus pyogenes) [µg/mL] | MIC (Pasteurella multocida [5]) [µg/mL] | ED50 (Pasteurella multocida [6]) [mg/kg] | ED50 (Pasteurella multocida [7]) [mg/kg] | ED50 (Escherichia coli [8]) [mg/kg] | ED50 (Escherichia coli [9]) [mg/kg] | ED50 (Salmonella enterica [10]) [mg/kg] | ED50 (Salmonella enterica [11]) [mg/kg]
1 | O=C1NCCc2c1[n+]([O-])c1ccccc1[n+]2[O-] | 1.56 (≈ 6.75 µM) | 1.56 (≈ 6.75 µM) | 80 | 0 | 1.56 (≈ 6.75 µM) | < 0.39 | – | – | – | – | – | –
2 | COC(=O)N/N=C/c1c[n+]([O-])c2ccccc2[n+]1[O-] [CARBADOX] | 0.39 (≈ 1.49 µM) | 0.19 (≈ 0.725 µM) | 100 | 100 | 0.19 (≈ 0.725 µM) | 0.78 (≈ 2.97 µM) | 6.14 | 4.05 | 5.3 | 6.44 | 4.47 | 5.44
3 | O=C1c2c([n+]([O-])c3ccccc3[n+]2[O-])CCN1CCO | 12.5 (≈ 45.4 µM) | 12.5 (≈ 45.4 µM) | 0 | 0 | 6.25 (≈ 22.7 µM) | 12.5 (≈ 45.4 µM) | – | – | – | – | – | –
4 | CCN1CCc2c([n+]([O-])c3ccccc3[n+]2[O-])C1=O | 3.12 (≈ 12 µM) | 1.56 (≈ 6.02 µM) | 70 | 50 | 1.56 (≈ 6.02 µM) | 6.25 (≈ 24.1 µM) | – | – | – | – | – | –
5 | CN1CCc2c([n+]([O-])c3ccccc3[n+]2[O-])C1=O | 0.78 (≈ 3.18 µM) | 1.56 (≈ 6.36 µM) | 100 | 100 | 1.56 (≈ 6.36 µM) | 1.56 (≈ 6.36 µM) | 4.7 | 3.8 | 8.53 | 6.39 | 5.1 | 2.96
6 | COCCN1CCc2c([n+]([O-])c3ccccc3[n+]2[O-])C1=O | 1.56 (≈ 5.39 µM) | 3.12 (≈ 10.8 µM) | 90 | 60 | 0.78 (≈ 2.7 µM) | 3.12 (≈ 10.8 µM) | – | – | – | – | – | –
7 | O=C1c2c([n+]([O-])c3ccccc3[n+]2[O-])CCN1CCN1CCCCC1 | 3.12 (≈ 9.11 µM) | 1.56 (≈ 4.56 µM) | 30 | 0 | < 0.39 | 25 (≈ 73 µM) | – | – | – | – | – | –
8 | C=CCN1CCc2c([n+]([O-])c3ccccc3[n+]2[O-])C1=O | 3.12 (≈ 11.5 µM) | 1.56 (≈ 5.75 µM) | 30 | 0 | 0.78 (≈ 2.88 µM) | 6.25 (≈ 23 µM) | – | – | – | – | – | –
9 | O=C1c2c([n+]([O-])c3ccccc3[n+]2[O-])CCN1C1CCCCC1 | 50 (≈ 160 µM) | 50 (≈ 160 µM) | 0 | 0 | 3.12 (≈ 9.96 µM) | 25 (≈ 79.8 µM) | – | – | – | – | – | –

Reference: ChEMBL document CHEMBL1122100, “Pyridoquinoxaline N-oxides. 2. Synthesis and antibacterial activity of tricyclic lactams” (1982)
